# Measurements as given in US20070219268A1, “Anti-cancer activity augmentation compounds and formulations and methods of use thereof” (BioNumerik Pharmaceuticals, Inc., priority 2006, published 2007).
# “Also recorded” adds a separate entry of the source.
# Columns and labels:
# [1] = target: T1, glutathione-S-transferase (GST), m1-1 isotype (Homo sapiens, UniProt P09488); experiment: GST assay: conjugation of reduced glutathione to CDNB, absorbance at 340 nm; assay type: biochemical; details: difference of relative activity from 100%
# T1 construct: purchased
# T1 sequence (P09488 1-218): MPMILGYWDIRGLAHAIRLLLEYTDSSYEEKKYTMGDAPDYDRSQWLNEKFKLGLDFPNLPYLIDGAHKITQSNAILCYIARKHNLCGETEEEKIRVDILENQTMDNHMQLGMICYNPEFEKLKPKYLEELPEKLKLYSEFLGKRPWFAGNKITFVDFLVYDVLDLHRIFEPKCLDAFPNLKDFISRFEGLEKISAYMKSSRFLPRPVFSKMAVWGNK
# Description: The following experiments were designed to determine if Tavocept™ has an inhibitory or stimulatory effect on GST. […] An in vitro assay for GST has been developed and reported. See, Meyer, D. J. and Ketterer, B., Purification of soluble human glutathione S-transferases. Methods Enzymol. 252:53-65 (1995). This assay monitors the conjugation of reduced glutathione to 1-chloro-2,4-dinitrobenzene (CDNB), as illustrated in Reaction Scheme II, below.
# Reduced thiol forms a conjugate with CDNB (extinction coefficient=9600 M^−1 cm^−1), which is detected at 340 nm. Stock solutions of GSH, CDNB, Tavocept™ were prepared by dissolving the reagent in sterile water at the concentrations listed below prior to use. […] Slopes were measured in the linear range of the assay (i.e., typically between 5 to 10 min.). In assays where the effect of Tavocept™ on GST activity was measured, 20 μL of either a 500 mM, 166.7 mM, or 55.6 mM stock solution of Tavocept™ was added to standard reactions using 1 mM GSH as the enzyme substrate. […]
# Raw data was obtained on a Cary 100 spectrophotometer. […] No absorbance values were collected during the process of enzyme addition. […] It was during this time that reaction rates (i.e., slopes of change in absorbance with time) were measured using the Cary 100 software. […]
# thioredoxin (TRX) = target: T2, thioredoxin (TRX) (Homo sapiens, UniProt P10599); experiment: NADPH oxidation at 340 nm by TRR in the presence of TRX; assay type: biochemical
# T2 sequence (P10599 1-105): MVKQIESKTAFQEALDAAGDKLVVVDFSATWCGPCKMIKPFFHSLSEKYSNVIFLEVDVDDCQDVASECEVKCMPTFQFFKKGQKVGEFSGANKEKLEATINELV
# Protocol: (§1) The activity of TRR and TRX was determined by following NADPH oxidation at 340 nm according to the previously reported method. See, Luthman, M., and Holmgren, A. Rat liver thioredoxin and thioredoxin reductase: purification and characterization. Biochemistry 21:6628-6633 (1982). A typical assay mixture contained TR buffer (50 mM potassium phosphate, pH 7.0, 1 mM EDTA), 200 μM NADPH, 1.6 μg bovine TRR, and one or more of the following: 4.8 μM TRX, 86 μM insulin, and one of the disulfides described herein. All disulfides were added to reactions as 10× solutions in TR buffer. The total volume of each reaction was 0.1 mL. Reactions were initiated by the addition of TRR and were incubated at 25° C. for 40 min. The activity was calculated using a 4 min. linear portion of each reaction. Enzyme assays were carried out using either a Molecular Devices SpectraMaxPlus UV plate reader or a Varian Cary 100 UV-visible Spectrophotometer.
# (§2) Data was then collected and plotted in Microsoft Excel. Error calculations, and graphical representations were performed in Microsoft Excel and Kaleidograph (ver. 3.5). Nonlinear data was graphically rendered using Kaleidograph. ANOVA and other statistical analyses were performed using SAS (ver. 8.2). Unless otherwise noted, significance level was set at 0.05, and error bars represent actual experimental standard deviation.
# [2] = target: T3, thioredoxin reductase (TRR) (Bos taurus, UniProt O62768); experiment: NADPH oxidation at 340 nm by TRR in the absence of TRX; assay type: biochemical, bovine
# T3 sequence (O62768 1-499): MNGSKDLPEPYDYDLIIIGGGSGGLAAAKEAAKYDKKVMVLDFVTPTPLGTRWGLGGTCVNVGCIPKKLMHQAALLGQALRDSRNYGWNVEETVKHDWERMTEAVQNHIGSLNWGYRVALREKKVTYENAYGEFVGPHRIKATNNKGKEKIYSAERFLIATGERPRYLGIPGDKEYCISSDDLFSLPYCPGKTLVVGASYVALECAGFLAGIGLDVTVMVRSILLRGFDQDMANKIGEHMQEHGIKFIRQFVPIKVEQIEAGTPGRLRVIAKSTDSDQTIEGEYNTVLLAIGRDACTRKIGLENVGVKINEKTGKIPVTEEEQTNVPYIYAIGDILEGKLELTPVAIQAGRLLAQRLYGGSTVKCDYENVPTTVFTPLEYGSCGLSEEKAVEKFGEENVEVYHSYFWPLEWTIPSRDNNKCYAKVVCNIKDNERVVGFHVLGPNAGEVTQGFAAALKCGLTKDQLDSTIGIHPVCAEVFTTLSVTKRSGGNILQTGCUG
# Protocol: as §1, §2
# glutaredoxin = target: T4, glutaredoxin (Homo sapiens, UniProt P35754); experiment: Glutaredoxin assay in the presence of reduced glutathione and glutathione reductase; assay type: biochemical
# T4 sequence (P35754 1-106): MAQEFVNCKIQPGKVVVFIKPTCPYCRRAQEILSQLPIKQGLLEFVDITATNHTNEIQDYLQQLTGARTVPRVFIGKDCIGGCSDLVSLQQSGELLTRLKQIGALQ
# Description: In addition to the absence of interference with anti-cancer activity, results from in vivo studies have shown that Tavocept™ may elicit the restoration of apoptotic sensitivity in tumor cells through thioredoxin- and glutaredoxin-mediated mechanisms and this may be an important element of its effectiveness as a chemotherapeutic agent.
# [3] = based on magnitude and concentration-dependence of oxidation responses
smiles,measurement,setting,value
"O=S(=O)([O-])CCSSCCS(=O)(=O)[O-].[Na+].[Na+] [Tavocept™, disodium 2,2′-dithio-bis-ethane sulfonate]",Percent Inhibition,[1]; 1.1 mM Tavocept,5.6%
same,Percent Inhibition,[1]; 3.3 mM Tavocept,39%
same,NADPH oxidation by TRR in the presence of TRX,"thioredoxin (TRX); 4.8 μM TRX, 200 μM NADPH, 25° C.",concentration-dependent increase
same,substrate for TRX,thioredoxin (TRX); [3],most likely a substrate for TRX; also recorded: substrate for thioredoxin
same,substrate for TRR,[2]; [3],not for TRR
same,NADPH oxidation by TRR in the absence of TRX,"[2]; no TRX, 200 μM NADPH, 25° C.",indistinguishable from background
same,activity with glutaredoxin,glutaredoxin,substrate-like activity
